Reference: US12581252B2, “Substituted pyrrolo[3,4-b]pyridines as PI3K-α inhibitors” (Relay Therapeutics, Inc., priority 2020, dated 2026)

Experiments:
cells = conditions: Homo sapiens, MCF-10A, read-out: MCF10A IC50
H1047R PIK3CA enzyme = H1047R PIK3CA enzyme (Homo sapiens, UniProt P42336, H1047R); experiment: ADP-Glo Biochemical PIK3CA Kinase Assay
H1047R PIK3CA enzyme, sequence (P42336 whole entry H1047R): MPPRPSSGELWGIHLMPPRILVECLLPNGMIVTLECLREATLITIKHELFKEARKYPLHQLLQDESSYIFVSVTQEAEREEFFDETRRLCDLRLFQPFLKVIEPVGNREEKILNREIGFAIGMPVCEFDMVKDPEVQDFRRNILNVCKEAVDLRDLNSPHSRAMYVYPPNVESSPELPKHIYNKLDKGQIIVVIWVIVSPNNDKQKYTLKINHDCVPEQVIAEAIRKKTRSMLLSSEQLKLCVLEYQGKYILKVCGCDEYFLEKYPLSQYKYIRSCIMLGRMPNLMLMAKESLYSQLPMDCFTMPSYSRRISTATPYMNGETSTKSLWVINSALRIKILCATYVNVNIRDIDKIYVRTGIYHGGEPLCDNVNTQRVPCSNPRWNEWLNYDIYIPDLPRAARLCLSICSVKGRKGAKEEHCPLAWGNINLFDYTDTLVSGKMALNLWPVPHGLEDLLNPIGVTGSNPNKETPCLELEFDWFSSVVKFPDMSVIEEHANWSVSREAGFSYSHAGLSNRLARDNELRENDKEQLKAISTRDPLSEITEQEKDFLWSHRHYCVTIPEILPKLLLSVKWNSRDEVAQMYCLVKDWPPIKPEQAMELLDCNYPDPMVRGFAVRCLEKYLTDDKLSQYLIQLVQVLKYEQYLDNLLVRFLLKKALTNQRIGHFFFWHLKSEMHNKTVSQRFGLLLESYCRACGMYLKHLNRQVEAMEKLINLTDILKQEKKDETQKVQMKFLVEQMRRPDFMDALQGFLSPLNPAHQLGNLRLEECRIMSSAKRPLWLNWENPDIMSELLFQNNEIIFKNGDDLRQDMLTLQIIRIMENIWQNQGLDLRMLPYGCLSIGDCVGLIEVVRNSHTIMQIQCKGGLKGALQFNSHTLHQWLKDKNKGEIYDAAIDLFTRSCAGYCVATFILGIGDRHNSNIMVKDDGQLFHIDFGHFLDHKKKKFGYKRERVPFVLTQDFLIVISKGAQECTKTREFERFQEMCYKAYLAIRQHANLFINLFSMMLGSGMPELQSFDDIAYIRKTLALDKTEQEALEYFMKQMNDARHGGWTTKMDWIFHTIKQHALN
H1047R PIK3CA enzyme, sequence (P27986 whole entry partner): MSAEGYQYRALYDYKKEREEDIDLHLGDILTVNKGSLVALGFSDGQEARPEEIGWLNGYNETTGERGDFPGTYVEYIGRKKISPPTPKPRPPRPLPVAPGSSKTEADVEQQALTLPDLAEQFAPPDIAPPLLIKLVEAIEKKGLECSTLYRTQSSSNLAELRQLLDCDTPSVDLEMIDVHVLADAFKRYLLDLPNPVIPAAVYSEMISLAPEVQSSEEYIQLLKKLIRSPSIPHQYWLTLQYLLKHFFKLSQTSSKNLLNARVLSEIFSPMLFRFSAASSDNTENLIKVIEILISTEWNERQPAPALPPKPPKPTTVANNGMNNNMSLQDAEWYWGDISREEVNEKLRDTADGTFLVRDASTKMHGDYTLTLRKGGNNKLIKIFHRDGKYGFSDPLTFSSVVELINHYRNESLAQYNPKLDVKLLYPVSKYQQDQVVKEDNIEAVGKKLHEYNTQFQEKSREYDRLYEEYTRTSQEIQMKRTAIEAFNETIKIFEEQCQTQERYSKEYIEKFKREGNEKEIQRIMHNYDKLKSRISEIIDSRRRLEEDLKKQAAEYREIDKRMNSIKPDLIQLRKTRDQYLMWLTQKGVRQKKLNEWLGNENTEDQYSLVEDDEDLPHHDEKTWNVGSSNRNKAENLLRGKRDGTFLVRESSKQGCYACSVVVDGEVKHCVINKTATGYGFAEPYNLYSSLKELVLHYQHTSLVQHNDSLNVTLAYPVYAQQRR

SMILES	IC50 (cells)	IC50 (H1047R PIK3CA enzyme)
N#CC1(C(=O)Nc2cc(NC(=O)c3cc(F)cc(C(F)(F)F)c3)c3c(c2)C(=O)NC3c2cc(F)ccc2Cl)CNC1 (centres unmarked) [Compound I-2149]	10000 to 36000 nM	≤ 100 nM
O=C(Nc1cc(-c2cn3ncnc3cn2)cc2c1C(c1cc(F)ccc1C(F)F)NC2=O)c1cc(F)cc(C(F)(F)F)c1 (centres unmarked) [Compound I-2185]	< 1000 nM	≤ 100 nM
CC(C)(CN)n1cc(-c2cc(NC(=O)c3cc(F)cc(C(F)(F)F)c3)c3c(c2)C(=O)NC3c2cc(F)ccc2Cl)cn1 (centres unmarked) [Compound I-2186]	1000 to 5000 nM	≤ 100 nM
O=C(Nc1cc(-n2ccccc2=O)cc2c1C(c1cc(F)ccc1Cl)NC2=O)c1cc(F)cc(C(F)(F)F)c1 (centres unmarked) [Compound I-2192]	1000 to 5000 nM	≤ 100 nM
CN(C)c1nc2cc(-c3cc(NC(=O)c4cc(F)cc(C(F)(F)F)c4)c4c(c3)C(=O)NC4c3cc(F)ccc3Cl)ccn2n1 (centres unmarked) [Compound I-2200]	< 1000 nM	≤ 100 nM
O=C(Nc1cc(-c2cn3ncnc3cn2)cc2c1C(c1cc(F)ccc1C(F)F)NC2=O)c1cc(F)cc(Cl)c1 (centres unmarked) [Compound I-2201]	1000 to 5000 nM	≤ 100 nM
N#Cc1c(N)cc(NC(=O)c2cc(F)cc(C(F)(F)F)c2)c2c1C(=O)NC2c1cc(F)ccc1Cl (centres unmarked) [Compound I-2223]	< 1000 nM	≤ 100 nM
O=C(Nc1cccc2c1C(c1cc(F)ccc1Cl)NC2=O)c1csc2c1CCCC2 (centres unmarked) [Compound I-2239]	1000 to 5000 nM	≤ 100 nM
O=C(Nc1cc(NC2=NCCO2)cc2c1C(c1cc(F)ccc1Cl)NC2=O)c1cc(F)cc(C(F)(F)F)c1 (centres unmarked) [Compound I-2256]	1000 to 5000 nM	≤ 100 nM
O=C1NC(c2cc(F)ccc2C(F)F)c2c(NC(=O)N3CC(O)c4cc(F)ccc43)cc(Br)cc21 (centres unmarked) [Compound I-2257]	1000 to 5000 nM	≤ 100 nM
CC(O)c1cc(NC(=O)N2CC(O)c3ccccc32)c2c(c1)C(=O)NC2c1cc(F)ccc1Cl (centres unmarked) [Compound I-2288]	10000 to 36000 nM	≤ 100 nM
CC(C#N)c1cc(NC(=O)c2cc(F)cc(C(F)(F)F)c2)c2c(c1)C(=O)N[C@H]2c1cc(F)ccc1Cl (some centres unmarked) [Compound I-2290]	< 1000 nM	≤ 100 nM
O=C(Nc1cc(NC2=NCC(C(F)(F)F)O2)cc2c1C(c1cc(F)ccc1Cl)NC2=O)c1cc(F)cc(C(F)(F)F)c1 (centres unmarked) [Compound I-2297]	1000 to 5000 nM	≤ 100 nM
O=C1NC(c2cc(F)ccc2Cl)c2c(NC(=O)N3CC(O)c4cc(F)ccc43)cc(-c3cnn(C(F)F)c3)cc21 (centres unmarked) [Compound I-2299]	1000 to 5000 nM	≤ 100 nM
O=C1NC(c2cc(F)ccc2Cl)c2c(NC(=O)N3CCc4cc(F)ccc43)cc(-c3cnn(C(F)F)c3)cc21 (centres unmarked) [Compound I-2300]	1000 to 5000 nM	≤ 100 nM
O=C(Nc1cc(NC2=NC3(CC3)CO2)cc2c1C(c1cc(F)ccc1Cl)NC2=O)c1cc(F)cc(C(F)(F)F)c1 (centres unmarked) [Compound I-2359]	1000 to 5000 nM	≤ 100 nM
O=C(Nc1cc(NC2=NC(C(F)(F)F)CO2)cc2c1C(c1cc(F)ccc1Cl)NC2=O)c1cc(F)cc(C(F)(F)F)c1 (centres unmarked) [Compound I-2360]	5000 to 10000 nM	≤ 100 nM
O=C(Nc1cc(NC2=NC3(CO2)CC(F)(F)C3)cc2c1C(c1cc(F)ccc1Cl)NC2=O)c1cc(F)cc(C(F)(F)F)c1 (centres unmarked) [Compound I-2409]	5000 to 10000 nM	≤ 100 nM
N#Cc1cc(NC(=O)N2CC(O)(C(F)(F)F)c3cc(F)ccc32)c2c(c1)C(=O)NC2c1cc(F)ccc1Cl (centres unmarked) [Compound I-2469]	< 1000 nM	≤ 100 nM
N#Cc1cc(NC(=O)N2CC(O)(C(F)(F)F)c3ccccc32)c2c(c1)C(=O)NC2c1cc(F)ccc1Cl (centres unmarked) [Compound I-2473]	< 1000 nM	≤ 100 nM
O=C1NC(c2cc(F)ccc2Cl)c2c(NC(=O)N3CC(O)(C(F)(F)F)c4cc(F)ccc43)cccc21 (centres unmarked) [Compound I-2474]	1000 to 5000 nM	≤ 100 nM
O=C1NC(c2cc(F)ccc2Cl)c2c(NC(=O)N3CCc4ccccc43)cccc21 (centres unmarked) [Compound I-2479]	1000 to 5000 nM	≤ 100 nM
NCc1cc(NC(=O)N2CC(O)(C(F)(F)F)c3cc(F)ccc32)c2c(c1)C(=O)NC2c1cc(F)ccc1Cl (centres unmarked) [Compound I-2568]	10000 to 36000 nM	≤ 100 nM
CNc1cc(NC(=O)N2CC(O)(C(F)(F)F)c3cc(F)ccc32)c2c(c1C#N)C(=O)NC2c1cc(F)ccc1Cl (centres unmarked) [Compound I-2587]	1000 to 5000 nM	≤ 100 nM
NCc1cc(NC(=O)N2CC(O)(C(F)F)c3cc(F)ccc32)c2c(c1)C(=O)NC2c1cc(F)ccc1Cl (centres unmarked) [Compound I-2597]	10000 to 36000 nM	≤ 100 nM
O=C1NC(c2cc(F)ccc2Cl)c2c(NC(=O)N3CC(O)(C(F)F)c4cc(F)ccc43)cc(F)cc21 (centres unmarked) [Compound I-2622]	1000 to 5000 nM	≤ 100 nM
O=C1NC(c2cc(F)ccc2Cl)c2c(NC(=O)N3CC(O)(C(F)(F)F)c4cc(F)ccc43)cc(F)cc21 (centres unmarked) [Compound I-2623]	< 1000 nM	≤ 100 nM
[2H]C1(c2cc(F)ccc2Cl)NC(=O)c2cccc(NC(=O)N3CC(O)(C(F)(F)F)c4cc(F)ccc43)c21 (centres unmarked) [Compound I-2648]	< 1000 nM	≤ 100 nM
